According to US11607421B2, “Ethanolamine-based lipid biosynthetic compounds, method of making and use thereof” (Metanoi Therapeutics, Inc., priority 2016, dated 2023):
Converted amounts (≈) assume the structure as drawn.

Assays:
[1] = tested on: p53, p21, Bax, pBcl-2, c-PARP, Bim, Bid, HIF1-α; test: Immunoblot of PC-3-luc tumor lysates; type: in vivo, mice
Method: (§1) OCR was measured using an oxygen electrode.
Since p21, Bax and pBcl2 are downstream effectors of p53, p53 expression levels were examined in control and Etn-treated tumors, as well as control and Etn-treated PC-3 cells.
(§2) To test this hypothesis, HIF1-α expression levels were analyzed in Etn-treated tumors and PC-3 cells. […] DMOG, an HIF1-α activator, was then employed to test whether Etn-mediated cell death in PC-3 cells was associated with HIF1-α stabilization (active HIF1-α signaling).
Proteins were resolved by polyacrylamide gel electrophoresis and transferred onto polyvinylidene difluoride membranes (Millipore, Billerica, Mass., USA). The membranes were blocked in Tris-buffered saline containing 0.05% Tween-20 and 5% fat-free dry milk and incubated first with primary antibodies and then with horseradish peroxidase-conjugated secondary antibodies. Specific proteins were visualized with enhanced chemiluminescence detection reagent according to the manufacturer's instructions (Pierce Biotechnology, Rockford, Ill., USA).

CYP2C9 = CYP2C9 (Homo sapiens, UniProt P11712); test: CYP inhibition in human liver microsomes
Chain of CYP2C9 (P11712 whole entry): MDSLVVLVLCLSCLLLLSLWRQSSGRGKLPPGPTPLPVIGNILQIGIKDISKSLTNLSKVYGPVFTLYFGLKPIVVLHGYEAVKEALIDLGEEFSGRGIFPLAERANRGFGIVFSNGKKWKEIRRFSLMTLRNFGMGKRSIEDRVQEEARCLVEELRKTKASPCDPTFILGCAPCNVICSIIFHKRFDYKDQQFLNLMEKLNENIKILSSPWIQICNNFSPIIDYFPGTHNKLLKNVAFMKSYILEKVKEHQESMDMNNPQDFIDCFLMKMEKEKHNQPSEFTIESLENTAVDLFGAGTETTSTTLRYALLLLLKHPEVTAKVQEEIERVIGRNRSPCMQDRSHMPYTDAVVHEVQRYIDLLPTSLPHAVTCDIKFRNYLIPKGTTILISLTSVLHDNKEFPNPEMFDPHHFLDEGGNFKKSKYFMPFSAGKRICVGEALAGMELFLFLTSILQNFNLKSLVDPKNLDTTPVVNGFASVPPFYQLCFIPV

PC-3 cells [2] = test: Clonogenic cell survival (colony) assay; type: cell-based, human; conditions: 2 mg/ml, 48 h treatment, colonies after 10 days
Method: (§3) Next, a clonogenic cell survival assay was performed to assess the reproductive capacity of cells upon drug removal.
(§4) After 48 h, drug containing medium was replaced by medium containing MTT (tetrazolium bromide) at a concentration of 0.5 mg/ml. The yellow tetrazolium salt is reduced to insoluble purple formazan by viable cells. After 4 h of incubation in dark, formazan crystals produced by viable cells were dissolved by 200 μl DMSO and the amount of formazan crystals formed was quantified by recording the absorbance at 570 nm using multi-well plate reader. […] After 10 days, colonies were fixed with 4% formaldehyde, stained with crystal violet and counted.

CYP2E1 = CYP2E1 (Homo sapiens, UniProt P05181); test: CYP inhibition in human liver microsomes
Chain of CYP2E1 (P05181 whole entry): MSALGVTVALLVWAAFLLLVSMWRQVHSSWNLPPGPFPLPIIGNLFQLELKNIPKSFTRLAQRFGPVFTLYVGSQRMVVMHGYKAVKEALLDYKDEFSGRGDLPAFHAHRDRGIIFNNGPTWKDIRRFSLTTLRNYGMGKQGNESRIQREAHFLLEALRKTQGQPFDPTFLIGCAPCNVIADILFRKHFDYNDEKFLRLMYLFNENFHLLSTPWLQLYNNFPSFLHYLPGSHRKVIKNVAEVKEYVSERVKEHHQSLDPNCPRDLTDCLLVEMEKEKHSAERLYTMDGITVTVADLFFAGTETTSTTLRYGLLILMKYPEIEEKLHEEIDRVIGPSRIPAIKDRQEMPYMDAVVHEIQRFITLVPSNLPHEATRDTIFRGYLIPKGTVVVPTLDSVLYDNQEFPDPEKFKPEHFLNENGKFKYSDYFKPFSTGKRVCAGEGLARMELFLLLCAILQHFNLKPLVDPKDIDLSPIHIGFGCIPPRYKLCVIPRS

CK KD PC-3 cells = test: MTT assay in choline kinase knock down cells (siRNA); type: cell-based; conditions: Homo sapiens, PC-3, 48 h; read-out: decrease in cell viability
Excerpt: (Panel D) Choline kinase expression in prostate cancer cell lines (PC-3, DU145 and C42B) and normal prostate cell line (RWPE-1). GAPDH was used as a loading control. (Panel E) Scatter-plot comparing choline kinase expression in normal and cancer tissue from prostate cancer patients (p=0.002). The p value for statistical significance was set up as 0.05, while the fold change was defined as mean of all individual data points of analyzed datasets. (Panel Fi) Micrographs showing immunohistochemical staining of choline kinase enzyme in normal and cancer tissue from prostate cancer patients. (Panel Fii) Quantification (composite score) of choline kinase expression in normal and cancer tissue from prostate cancer patient. Five normal and five cancer tissue cases on TMA were scored for choline kinase staining percentage and intensity and composite scores were calculated using two parameters. As shown in these figures, choline kinase enzyme is highly expressed in cancer tissue as opposed to normal tissue.
A siRNA approach was further employed to confirm the role of CK in Etn-induced cell death.

PC-3 cells [3] = test: Annexin V binding assay (flow cytometry); type: cell-based, human; conditions: 2.0 mg/ml Etn
Method: Annexin V binding assays were performed for control and 2.0 mg/ml Etn-treated cells along with counterstaining with 7-AAD to distinguish between dead and apoptotic cells. Annexin V positive cells were analyzed using flow cytometry. Representative scatter plots for control and Etn-treated cells stained with 7-AAD and annexin V are shown.
Annexin-V is known to bind to phosphatidylserine (PS) lipids which flip to the outer leaflet of plasma membrane in apoptotic cells (Vermes I. et al., J. Immunol. Methods, 1995, vol. 184, pp. 39-51). Annexin-V binding to PS is therefore a good indicator of cells undergoing apoptosis.

[4] = tested on: p21, PARP1, Bcl-2, HIF1-α, Bax and Bid; test: Real time-PCR transcription levels; type: cell-based, human; conditions: PC-3 cells, 2 mg/ml Etn for 48 h
Method: as §1, §2
RNA was extracted from control and 2 mg/ml Etn-treated PC-3 cells using a RNeasy kit from Qiagen (Hilden, Germany), and quantified using NanoDrop. Reverse transcription of RNA was performed for the first strand cDNA synthesis using a first strand synthesis kit (GoScript™ Reverse Transcription System-A5000) from Promega (Madison, Wis.). The quality of synthesized cDNAs was checked on an agarose gel. RT-PCR of cDNA samples (in duplicates) was performed using iQ™ SYBR® Green Supermix from Bio-Rad (Hercules, Calif.) as per manufacturer's instructions. The RT-PCR primers were designed manually, checked with the primer3 software and ordered from Sigma (St Louis, Mo.).

CYP2D6 = CYP2D6 (Homo sapiens, UniProt P10635); test: CYP inhibition in human liver microsomes
Chain of CYP2D6 (P10635 whole entry): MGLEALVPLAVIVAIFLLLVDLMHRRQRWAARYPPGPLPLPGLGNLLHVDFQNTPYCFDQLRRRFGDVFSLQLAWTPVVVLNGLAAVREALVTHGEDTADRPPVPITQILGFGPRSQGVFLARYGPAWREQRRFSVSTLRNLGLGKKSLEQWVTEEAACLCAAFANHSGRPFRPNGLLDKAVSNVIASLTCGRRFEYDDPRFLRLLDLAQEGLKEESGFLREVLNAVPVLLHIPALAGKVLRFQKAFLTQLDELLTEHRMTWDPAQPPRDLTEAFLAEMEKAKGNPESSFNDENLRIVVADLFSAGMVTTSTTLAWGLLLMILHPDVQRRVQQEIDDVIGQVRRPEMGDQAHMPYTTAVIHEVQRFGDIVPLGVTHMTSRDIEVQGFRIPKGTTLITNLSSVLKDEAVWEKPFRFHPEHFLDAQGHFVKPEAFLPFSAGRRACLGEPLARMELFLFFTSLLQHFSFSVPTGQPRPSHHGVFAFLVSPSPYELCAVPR

PC-3 cells [5] = test: Oxygen consumption rate (OCR), oxygen electrode; type: cell-based, human; conditions: 2 mg/ml Etn, 48 h, 1×10^6 cells/ml
Method: as §1
OCRs were measured using a computer-interfaced oxygen electrode (Hansatech Instruments, Inc., Norfolk, England) by monitoring the initial rate of oxygen consumption at 37° C. and atmospheric oxygen concentration (230 μM O2).

CYP2B6 = CYP2B6 (Homo sapiens, UniProt P20813); test: CYP inhibition in human liver microsomes
Chain of CYP2B6 (P20813 whole entry): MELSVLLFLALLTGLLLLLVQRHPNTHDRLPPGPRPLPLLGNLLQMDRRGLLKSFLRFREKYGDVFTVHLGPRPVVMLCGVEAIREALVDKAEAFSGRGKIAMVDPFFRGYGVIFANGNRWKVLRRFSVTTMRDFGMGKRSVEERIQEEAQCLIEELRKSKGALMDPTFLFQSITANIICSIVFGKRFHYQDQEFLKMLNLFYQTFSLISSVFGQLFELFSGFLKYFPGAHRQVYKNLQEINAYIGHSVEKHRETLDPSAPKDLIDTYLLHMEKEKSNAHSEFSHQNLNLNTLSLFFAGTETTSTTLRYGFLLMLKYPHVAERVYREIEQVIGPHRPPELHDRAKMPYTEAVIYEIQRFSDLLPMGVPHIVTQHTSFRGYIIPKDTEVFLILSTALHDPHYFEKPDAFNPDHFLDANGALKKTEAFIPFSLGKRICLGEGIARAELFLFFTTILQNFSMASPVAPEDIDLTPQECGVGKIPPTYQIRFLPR

[6] = parameters: species or system BALB/c mice; conditions: mouse, in vivo, 40 mg/kg
Method: Mice were sacrificed after 24, 48 h and 1, 2, 3, 4 weeks and spleens were collected. Total splenocytes were counted after lysis of RBC with RBC lysis buffer. After this, splenocytes where incubated with anti-CD16/CD32 antibody to block Fc receptors and then labeled with anti-CD3-APC, anti-CD4-Alexa488, anti-CD8-Alexa488, anti-DX5-FITC, or anti-CD19-FITC antibodies according to the manufacturer's instructions. Labeled cells were analyzed by flow cytometry using an LSRFortessa Flow cytometer (BD Biosciences, CA). Data from this analysis was analyzed using FlowJo software (TreeStar, OR).

PC-3 cells [7] = test: MTT cell proliferation assay; type: cell-based, human
Method: as §3, §4

Q: With `NCCO` [Etn, monoethanolamine] as the molecule, how does the “expression of cell-cycle and apoptotic markers in tumor lysates” value ([1]; 40 mg/kg Etn-treated mice) read?
A: Its value is “upregulated p21, Bax, pBcl2 c-PARP, Bim and Bid”.

Q: And the “p53 protein level in tumors” value ([1]; 40 mg/kg Etn-treated mice)?
A: Its value is “higher levels of p53 protein than untreated control tumors”.

Q: What about the “HIF1-α protein expression in tumors” value ([1]; Etn-treated tumors relative to untreated control tumors) of the same molecule?
A: Its value is “Downregulation of HIF1-α protein expression”.

Q: And the IC50 (CYP2C9)?
A: Its IC50 is over 100 µM.

Q: And the “decrease in colony numbers compared to control cells” value (PC-3 cells [2])?
A: Its value is about 97%.

Q: What about the IC50 (CYP2E1) of the same molecule?
A: The IC50 was over 100 µM.

Q: What about the cytotoxicity at 500 µg/mL (CK KD PC-3 cells) of the same molecule?
A: Its cytotoxicity at 500 µg/mL is about 11%.

Q: And the annexin-V positive cells (PC-3 cells [3])?
A: The annexin-V positive cells was about 25%.

Q: And the “reduction in HIF1-α transcript levels compared to control cells” value [4]?
A: The value was 50 fold.

Q: And the “transcription levels of cell-cycle and apoptosis regulators” value [4]?
A: The value was “upregulated p21, PARP1, Bax and Bid, and downregulated Bcl-2”.

Q: What about the IC50 (CYP2D6) of the same molecule?
A: Its IC50 is over 100 µM.

Q: What about the “reduction of OCR compared to controls” value (PC-3 cells [5]) of the same molecule?
A: Its value is about 26%.

Q: And the IC50 (CYP2B6)?
A: Its IC50 is over 100 µM.

Q: And the immunotoxicities [6]?
A: The immunotoxicities was “does not induce immunotoxicities”.

Q: And the “Etn-induced cell death with HIF1-α stabilization” value (PC-3 cells [7]; 35 μg/mL DMOG pre-treatment 4 h, then 1 and 2 mg/ml Etn with DMOG 48 h)?
A: Its value is “more effective in reducing survival in PC-3 cells”.

Q: What about the “reduction of cell survival” value (PC-3 cells [7]; 0.5 mg/ml Etn, 48 h, pH 7.4 (siRNA experiment)) of the same molecule?
A: The value was about 38%.

Q: What about the reduction of survival (PC-3 cells [7]; 0.5 mg/ml Etn, 48 h, range given for PC-3, DU145 and C4-2B together) of the same molecule?
A: Its reduction of survival is 30-52%.

Q: And the “reduction in cell proliferation” value (PC-3 cells [7]; 1 mg/ml Etn alone, 48 h, pH 7.4)?
A: The value was about 33%.

Q: And the “reduction in cell proliferation” value (PC-3 cells [7]; 1 mg/ml Etn in the presence of 1 μM CKI, 48 h, pH 7.4)?
A: The value was about 17%.

Q: What about the IC50 (PC-3 cells [7]; Homo sapiens, PC-3, 48 h, pH 7.4, MTT, 48 h, pH 7.4, read-out: half-maximal concentration (IC50)) of the same molecule?
A: Its IC50 is about 880 µg/mL (≈ 14.4 mM).

Q: And the “half-maximal concentration (IC50)” value (PC-3 cells [7]; MTT, 48 h, pH 7.4)?
A: Its value is 880 µg/mL.
